The Ki is a measure of affinity in units of concentration, obtained from inhibition or displacement. Low values mean a stronger hold on the target, high ones a looser hold on the target. What is called Kb is the affinity of an antagonist, worked out from how it opposes an agonist.

Assay [1] has as its target 5-hydroxytryptamine receptor 7 (Homo sapiens, UniProt P34969). The assay is described as follows: Displacement of [3H]-5-CT from 5-HT7b receptor (unknown origin). A general note: Displacement assays read how much labelled ligand stays bound in the presence of the test substance.
For a further assay, the target named is D(2) dopamine receptor (Homo sapiens, UniProt P14416). The assay can be described thus: Displacement of [3H]-Raclopride from D2L receptor (unknown origin).
Chain of D(2) dopamine receptor (P14416 whole entry): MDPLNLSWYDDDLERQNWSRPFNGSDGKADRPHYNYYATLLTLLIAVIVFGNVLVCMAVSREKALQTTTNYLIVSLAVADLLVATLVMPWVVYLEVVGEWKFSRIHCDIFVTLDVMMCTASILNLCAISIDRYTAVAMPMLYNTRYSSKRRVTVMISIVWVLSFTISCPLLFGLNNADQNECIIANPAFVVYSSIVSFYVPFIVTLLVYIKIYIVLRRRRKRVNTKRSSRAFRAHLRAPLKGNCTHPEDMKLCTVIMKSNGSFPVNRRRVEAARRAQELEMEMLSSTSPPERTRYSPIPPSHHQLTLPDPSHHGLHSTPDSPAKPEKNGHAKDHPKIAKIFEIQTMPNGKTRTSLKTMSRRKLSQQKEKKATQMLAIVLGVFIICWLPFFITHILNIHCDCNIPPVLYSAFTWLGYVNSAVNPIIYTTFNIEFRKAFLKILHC
The target of assay [2] is 5-hydroxytryptamine receptor 2A (Homo sapiens, UniProt P28223). The assay can be described thus: Binding affinity to 5HT2A receptor (unknown origin).
Chain of 5-hydroxytryptamine receptor 2A (P28223 whole entry): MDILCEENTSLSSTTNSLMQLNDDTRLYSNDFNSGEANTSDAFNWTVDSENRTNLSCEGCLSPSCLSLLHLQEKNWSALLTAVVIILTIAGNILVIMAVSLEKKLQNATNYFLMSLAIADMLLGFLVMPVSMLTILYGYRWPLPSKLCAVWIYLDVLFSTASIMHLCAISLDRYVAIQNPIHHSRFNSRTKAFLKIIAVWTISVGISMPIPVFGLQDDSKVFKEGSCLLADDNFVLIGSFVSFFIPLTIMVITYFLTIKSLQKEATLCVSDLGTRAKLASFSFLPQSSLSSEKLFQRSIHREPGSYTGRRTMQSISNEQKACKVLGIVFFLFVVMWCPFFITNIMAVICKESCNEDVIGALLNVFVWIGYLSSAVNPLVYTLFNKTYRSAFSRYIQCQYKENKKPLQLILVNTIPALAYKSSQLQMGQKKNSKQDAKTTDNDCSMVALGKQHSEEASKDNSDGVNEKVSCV
For assay [3], the target named is T1, 5-hydroxytryptamine receptor 6 (Homo sapiens, UniProt P50406). The assay can be described thus: Displacement of [3H]-LSD from 5-HT6 receptor (unknown origin).
T1 sequence (P50406 whole entry): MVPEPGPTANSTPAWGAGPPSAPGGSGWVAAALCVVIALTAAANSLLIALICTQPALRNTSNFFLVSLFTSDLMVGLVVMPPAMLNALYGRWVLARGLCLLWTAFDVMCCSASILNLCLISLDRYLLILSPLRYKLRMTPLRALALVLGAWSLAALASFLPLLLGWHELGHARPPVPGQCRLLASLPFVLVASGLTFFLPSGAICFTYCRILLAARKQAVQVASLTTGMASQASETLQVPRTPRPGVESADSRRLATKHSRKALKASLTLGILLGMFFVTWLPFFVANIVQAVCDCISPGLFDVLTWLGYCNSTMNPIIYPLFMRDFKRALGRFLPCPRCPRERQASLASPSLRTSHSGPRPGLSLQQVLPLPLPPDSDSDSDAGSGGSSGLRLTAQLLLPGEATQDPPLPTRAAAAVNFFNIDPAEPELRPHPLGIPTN
Assay [4] concerns the target T2, 5-hydroxytryptamine receptor 1A (Homo sapiens, UniProt P08908).
T2 sequence (P08908 whole entry): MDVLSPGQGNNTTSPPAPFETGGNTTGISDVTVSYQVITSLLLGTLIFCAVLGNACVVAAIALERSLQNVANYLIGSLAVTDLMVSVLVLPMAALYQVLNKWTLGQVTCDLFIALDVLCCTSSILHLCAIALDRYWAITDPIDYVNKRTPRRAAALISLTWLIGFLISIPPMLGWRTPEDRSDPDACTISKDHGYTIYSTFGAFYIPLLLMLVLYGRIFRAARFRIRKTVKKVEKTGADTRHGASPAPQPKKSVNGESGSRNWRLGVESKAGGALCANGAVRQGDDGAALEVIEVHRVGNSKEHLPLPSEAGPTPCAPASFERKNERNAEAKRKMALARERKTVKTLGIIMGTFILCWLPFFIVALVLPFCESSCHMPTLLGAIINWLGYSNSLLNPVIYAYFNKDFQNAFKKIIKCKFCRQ
The assay is described as follows: Displacement of [3H]-8-OH-DPAT from 5HT1A receptor (unknown origin).

In assay [5] the target is T1, 5-hydroxytryptamine receptor 6. The assay is described as follows: Antagonist activity at 5-HT6 receptor (unknown origin) expressed in HEK293 cells assessed as inhibition of 5-CT induced cAMP production after 30 mins by TR-FRET assay. It counts as functional, cell-based. Background: Changes in cAMP serve as a functional read-out for many G protein-coupled receptors.

Chain of 5-hydroxytryptamine receptor 7 (P34969 whole entry): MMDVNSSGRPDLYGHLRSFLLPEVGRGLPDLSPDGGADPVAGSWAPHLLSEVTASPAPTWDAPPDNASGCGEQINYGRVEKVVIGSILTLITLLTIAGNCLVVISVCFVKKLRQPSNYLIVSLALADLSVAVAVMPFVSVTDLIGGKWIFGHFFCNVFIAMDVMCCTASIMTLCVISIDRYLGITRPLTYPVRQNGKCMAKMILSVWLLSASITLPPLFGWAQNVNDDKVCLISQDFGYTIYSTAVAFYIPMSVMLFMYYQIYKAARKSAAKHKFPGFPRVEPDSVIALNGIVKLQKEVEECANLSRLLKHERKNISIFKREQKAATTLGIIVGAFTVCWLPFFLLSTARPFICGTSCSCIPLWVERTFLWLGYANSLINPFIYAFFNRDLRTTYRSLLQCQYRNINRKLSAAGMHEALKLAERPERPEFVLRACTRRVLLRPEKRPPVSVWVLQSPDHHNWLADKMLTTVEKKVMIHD

On to `CCN(CC)CC1=Cc2cn(S(=O)(=O)c3ccccc3)c3cccc(c23)O1`, for which the Ki in assay [1] was > 10 µM; on D(2) dopamine receptor, 4.35 µM; in assay [2], 1.7 µM; in assay [3], 0.028 µM; in assay [4], > 10 µM.

As for `CN(C)CC1=Cc2cn(S(=O)(=O)c3ccccc3)c3cccc(c23)O1`, the Ki in assay [1] is 3.69 µM; at D(2) dopamine receptor, 6.7 µM; in assay [2], 0.065 µM; in assay [3], 0.005 µM; in assay [4], > 10 µM.

With `CN(C)CC1=Cc2cn(S(=O)(=O)c3cccc4ccccc34)c3cccc(c23)O1`, the Ki came to 0.438 µM in assay [1]; 1.49 µM at D(2) dopamine receptor; 0.489 µM in assay [2]; 0.001 µM in assay [3]; 5.97 µM in assay [4].

With `O=S(=O)(c1ccccc1)n1cc2c3c(cccc31)OC(CO)=C2`, the Ki in assay [1] was > 10 µM; on D(2) dopamine receptor it was > 10 µM; in assay [2], > 10 µM; in assay [3], 0.036 µM; in assay [4] it was > 10 µM. Besides, in assay [5], the Kb worked out at 0.016 µM.

Take `O=CC1=Cc2cn(S(=O)(=O)c3cccc4ccccc34)c3cccc(c23)O1`: the Ki in assay [1] was > 10 µM; at D(2) dopamine receptor, 5.16 µM; in assay [3] it was 0.266 µM; in assay [4], > 10 µM.

Turning to `O=S(=O)(c1cccc2ccccc12)n1cc2c3c(cccc31)OC(CO)=C2`, the Ki was > 10 µM in assay [1], 4.29 µM at D(2) dopamine receptor, > 10 µM in assay [2] and 0.004 µM in assay [3].

As for `CC1=C(CO)Oc2cccc3c2c1cn3S(=O)(=O)c1ccccc1`, the inhibition constant (Ki) in assay [1] was > 10 µM; at D(2) dopamine receptor it was > 10 µM; in assay [2], > 10 µM; in assay [3], 0.052 µM; in assay [4], > 10 µM.

Regarding `CC1=C(CO)Oc2cccc3c2c1cn3S(=O)(=O)c1cccc2ccccc12`, the Ki in assay [1] was > 10 µM; on D(2) dopamine receptor, > 10 µM; in assay [2], > 10 µM; in assay [3], 0.02 µM; in assay [4], > 10 µM.

On to `N#CC1=Cc2cn(S(=O)(=O)c3cccc4ccccc34)c3cccc(c23)O1`, for which the Ki in assay [1] is > 10 µM; at D(2) dopamine receptor, > 10 µM; in assay [3], 0.755 µM; in assay [4] it was > 10 µM.

(Values after ChEMBL document CHEMBL3994665, “Pyrano[2,3,4-cd]indole as a Scaffold for Selective Nonbasic 5-HT6R Ligands” (ACS Med Chem Lett, 2017).)
